The record followed here is patent US8598132B2, “Glycosylated indolocarbazoles, method for obtaining same and uses thereof” (Universidad de Oviedo, priority 2008, dated 2013).

Holding throughout (assay type): biochemical
Assay [1] concerns the target T1, RSK1 (Homo sapiens, UniProt Q15418).
T1 construct: purchased Carna Biosciences
Put plainly: LabChip (Caliper) kinase assay, RSK1. Conditions: read-out: remaining kinase activity (in %) / percentage of inhibition; for inhibition at 0.01 µM: compound at 10 nM; for inhibition at 0.1 µM: compound at 100 nM. The method, then:
(§1) The analysis of kinase activity described here was performed using LabChip (Caliper Life Sciences), specifically the Caliper LC3000 and the EZ Reader II instruments.
(§2) The kinase assay used measures the conversion of a fluorescent peptide (substrate) to a phosphorylated product. The reaction mixture, in a microplate well, is introduced by a capillary in a chip where the non-phosphorylated substrate and the phosphorylated product are separated by […]. The intensity of the fluorescent signal over time is related to the reaction progress. The phosphorylated product migrates quicker than the non-phosphorylated substrate and the signals of the two forms of the peptide appear as differentiated peaks. The Caliper determines the peak height and calculates the ratio of product to the peak sum (P/(P+S)). This value is used to compare wells with compounds and wells with controls and thus determine the % of inhibition for the given product.
(§3) The followings kinases were used for the enzymatic inhibition studies, between brackets the value of the Michaelis-Menten constant, Km, of the ATP (Adenosine triphosphate) for each kinase, in μM: obtained from Carna Biosciences: MAPKAPK2 (4.6), AurA (3.6), AurB (5), PKCζ (3.8), RSK1 (23.3), PRAK (5), Erk1 (33.4), PKD2 (32.1), CK1d (16.3), CHK1 (33), ABL (61.7), FYN (36), LYNa (17), CHK2 (57.8), MET (79.5), LCK (28.5), SRC (38), GSK3β (7.3), Erk2 (62.1), PKACα (1.7), AKT2 (186.1), INSR (871.8), p38a (396.5), AKT1(48), MSK1 (21.2), PKCβ2 (84.8), ROCK2 (3.3), PIM2 (4.9), AMPK (38.6), KDR (164.8), IRAK4 (196.5), SGK1 (121.8), SYK (33.5); obtained from Invitrogen: CDK2 (57.6), BTK (123), HGK (80); obtained from Upstate: MST2 (36.6), PKGα (16), PAK2 (1.9), IGF1R (320), FGFR1 (171), MARK1 (33), CAMK2δ (22.4), c-TAK1 (66), DYRK1a (18.1), CaMK4 (3.9), FLT3 (350), c-Raf (6.2), P70S6K (95).
(§4) The compounds were dissolved in 100% DMSO and were diluted at 25 times the final concentration desired for the assay. In the case of the determination of Cl50, serial dilutions were made to reach eight concentrations and give rise to the inhibition curve. 1 μL of each concentration is transferred, in duplicate to a 384-well microplate. 12 μL of enzymatic buffer is added to each well containing purified kinase (several suppliers as indicated above), 100 mM HEPES, pH 7.5, 1 mM DTT (Calbiochem), 0.002% Brij-35 (Sigma) and also in presence of 10 mM MgCl2 as cofactor, except for INSR and IRAK4 wherein 10 mM MnCl2 is used instead of MgCl2. For the kinases CAMK26 and CAMK4, 1 mM CaCl2 and 6.7 μg/mL of calmodulin are also added. For KDR kinase, 0.05% of the CHAPSO detergent is added. For the c-Raf kinase, 10 mM MnCl2 is added. For PKCβ2 0.02 μg/mL of PS/PMA is added. For PKGα se 10 μM of cGMP (cyclic guanosine monophosphate) is added. The compound and the enzyme are left for 15 minutes preincubation and, then, the following are added to each well: 12 μL of peptide buffer/ATP containing 100 mM HEPES, pH 7.5, 1.5 μM peptide marker with fluorescein (specific for the corresponding kinase), ATP (at concentration KM), and 0.002% Brij-35 to start the reaction. Generally, the reactions are incubated for 1-1.5 h at ambient temperature to obtain an adequate conversion (15-40%) of the peptide to the phosphorylated product. The reactions were ended by the addition of 45 μL of buffer containing 0 mM EDTA. The microplates were read by the LabChip 3000 using a 12-channel LabChip. The P/(P+S) values were obtained as described above and the CI50 curves were generated using XIfit. […]

In assay [2] the target is T2, Erk2 (Homo sapiens, UniProt P28482).
T2 construct: purchased Carna Biosciences
Put plainly: LabChip (Caliper) kinase assay, Erk2. Particulars: read-out: remaining kinase activity (in %) / percentage of inhibition; for inhibition at 0.01 µM: compound at 10 nM; for inhibition at 0.1 µM: compound at 100 nM. Here is the method:
as §1, §2, §3, §4

Assay [3] concerns the target T3, AurB (Homo sapiens, UniProt Q96GD4).
T3 construct: purchased Carna Biosciences
Nature of the assay: LabChip (Caliper) kinase assay, AurB. Conditions: ATP at Km, read-out: CI50 (the source's name). Here is the method: as §1
as §2, with “given product. […]” for “given product.”
The compounds were dissolved in 100% DMSO and were diluted at 25 times the final concentration desired for the assay. […] The microplates were read by the LabChip 3000 using a 12-channel LabChip. […]

T2 sequence (P28482 whole entry): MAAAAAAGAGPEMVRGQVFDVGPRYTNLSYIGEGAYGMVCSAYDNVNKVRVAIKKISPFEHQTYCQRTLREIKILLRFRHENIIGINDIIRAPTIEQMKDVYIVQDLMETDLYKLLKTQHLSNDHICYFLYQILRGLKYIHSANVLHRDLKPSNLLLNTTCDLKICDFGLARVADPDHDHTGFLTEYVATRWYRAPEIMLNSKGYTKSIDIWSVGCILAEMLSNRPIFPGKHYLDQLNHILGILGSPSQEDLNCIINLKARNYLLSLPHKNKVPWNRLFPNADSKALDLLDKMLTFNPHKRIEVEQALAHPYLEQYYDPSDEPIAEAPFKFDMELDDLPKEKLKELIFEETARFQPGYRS
T1 sequence (Q15418 whole entry): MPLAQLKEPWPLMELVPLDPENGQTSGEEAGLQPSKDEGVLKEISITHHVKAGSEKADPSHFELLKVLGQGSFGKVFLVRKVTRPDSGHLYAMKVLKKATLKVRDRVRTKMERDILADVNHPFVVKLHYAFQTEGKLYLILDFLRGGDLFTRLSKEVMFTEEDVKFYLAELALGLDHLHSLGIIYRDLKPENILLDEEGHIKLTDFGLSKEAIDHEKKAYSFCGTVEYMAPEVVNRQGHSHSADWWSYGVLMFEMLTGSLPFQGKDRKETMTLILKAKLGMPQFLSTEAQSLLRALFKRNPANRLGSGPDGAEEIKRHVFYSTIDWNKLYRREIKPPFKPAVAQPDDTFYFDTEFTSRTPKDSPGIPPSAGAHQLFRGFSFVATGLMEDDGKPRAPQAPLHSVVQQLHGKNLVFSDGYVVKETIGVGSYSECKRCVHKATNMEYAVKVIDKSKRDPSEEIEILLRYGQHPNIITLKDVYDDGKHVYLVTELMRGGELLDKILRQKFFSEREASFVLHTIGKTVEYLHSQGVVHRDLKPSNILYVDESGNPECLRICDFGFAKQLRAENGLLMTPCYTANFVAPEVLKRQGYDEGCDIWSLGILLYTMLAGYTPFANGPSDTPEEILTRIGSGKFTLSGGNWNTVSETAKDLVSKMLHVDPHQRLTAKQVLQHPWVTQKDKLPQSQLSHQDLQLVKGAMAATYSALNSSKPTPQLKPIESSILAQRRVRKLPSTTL
T3 sequence (Q96GD4 whole entry): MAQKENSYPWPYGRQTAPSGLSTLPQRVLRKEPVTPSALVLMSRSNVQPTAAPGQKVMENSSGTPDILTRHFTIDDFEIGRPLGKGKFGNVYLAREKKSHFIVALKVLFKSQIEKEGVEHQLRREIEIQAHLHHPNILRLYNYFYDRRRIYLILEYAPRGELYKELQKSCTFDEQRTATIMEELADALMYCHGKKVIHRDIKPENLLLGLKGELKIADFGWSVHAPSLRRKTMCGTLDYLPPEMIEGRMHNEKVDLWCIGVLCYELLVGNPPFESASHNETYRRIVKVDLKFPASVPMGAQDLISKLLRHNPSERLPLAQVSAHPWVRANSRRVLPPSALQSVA
T3 sequence (Q9NQS7 803-918 partner limits assumed): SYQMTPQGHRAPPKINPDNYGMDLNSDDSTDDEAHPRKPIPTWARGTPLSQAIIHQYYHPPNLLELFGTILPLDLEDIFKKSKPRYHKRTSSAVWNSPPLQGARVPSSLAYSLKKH

Regarding `C[C@@H]1O[C@@H](n2c3ccccc3c3c4c(c5c6ccccc6[nH]c5c32)C(=O)NC4=O)[C@H](O)[C@H](O)[C@H]1O` [formula (III), N^13-1′-β-L-rhamnosylarcyriaflavin], the inhibition at 0.01 µM in assay [1] was 2%; in assay [2] it was -6%. Besides, the inhibition at 0.1 µM in assay [1] was 20%; in assay [2], -4%.

Regarding `C[C@@H]1O[C@@H](n2c3ccccc3c3c4c(c5c6ccccc6[nH]c5c32)C(=O)NC4=O)C[C@H](O)[C@H]1O` [formula (IV), N^13-1′-β-L-olivosylarcyriaflavin], in assay [1], the inhibition at 0.01 µM turned out to be 14% and the inhibition at 0.1 µM came out at 77%. Moreover, in assay [2], the inhibition at 0.01 µM was -2% and the inhibition at 0.1 µM is -3%.

For the compound `C[C@]12O[C@H](C[C@@H](O)[C@H]1O)n1c3ccccc3c3c4c(c5c6ccccc6n2c5c31)C(=O)NC4=O` [formula (IX), N^12-5′(S)-N^13-1′-(R)-L-digitoxosylarcyriaflavin], the IC50 in assay [3] amounted to 4.5 nM.

As to `C[C@@H]1O[C@@H](n2c3ccccc3c3c4c(c5c6ccccc6[nH]c5c32)C(=O)NC4=O)C[C@@H](O)[C@H]1O` [formula (V), N^13-1′-β-L-digitoxosylarcyriaflavin], in assay [1], the inhibition at 0.01 µM turned out to be 38% and the inhibition at 0.1 µM was found to be 77%. In assay [2], the inhibition at 0.01 µM is -4% and the inhibition at 0.1 µM worked out at 0%.

With `C[C@H]1O[C@@H](n2c3ccccc3c3c4c(c5c6ccccc6[nH]c5c32)C(=O)NC4=O)C[C@@H](O)[C@@H]1O` [formula (VI), N^13-1′-β-D-olivosylarcyriaflavin], in assay [1], the inhibition at 0.01 µM was determined as 31% and the inhibition at 0.1 µM was 74%. In addition, in assay [2], the inhibition at 0.01 µM is -1% and the inhibition at 0.1 µM was determined as 30%.

As to `C[C@@H]1O[C@@H](n2c3ccccc3c3c4c(c5c6ccccc6[nH]c5c32)CNC4=O)[C@H](O)[C@H](O)[C@H]1O` [formula (XII), N^13-1′-β-L-rhamnosyl-k252c], in assay [1], the inhibition at 0.01 µM was -4% and the inhibition at 0.1 µM is 7%. Further, in assay [2], the inhibition at 0.01 µM is -3% and the inhibition at 0.1 µM was -1%.

As to `C[C@@H]1O[C@@H](n2c3ccccc3c3c4c(c5c6ccccc6[nH]c5c32)CNC4=O)C[C@H](O)[C@H]1O` [formula (XIII), N^13-1′-β-L-olivosyl-k252c], in assay [1], the inhibition at 0.01 µM came to 7% and the inhibition at 0.1 µM was determined as 56%. In assay [2], the inhibition at 0.01 µM was -4% and the inhibition at 0.1 µM was 3%.

Regarding `C[C@@H]1O[C@@H](n2c3ccccc3c3c4c(c5c6ccccc6[nH]c5c32)CNC4=O)C[C@@H](O)[C@H]1O` [formula (XIV), N^13-1′-β-L-digitoxosyl-k252c], in assay [1], the inhibition at 0.01 µM is -1% and the inhibition at 0.1 µM was found to be 22%. In assay [2], the inhibition at 0.01 µM was -4% and the inhibition at 0.1 µM was 0%.

For `C[C@H]1O[C@@H](n2c3ccccc3c3c4c(c5c6ccccc6[nH]c5c32)CNC4=O)C[C@@H](O)[C@@H]1O` [formula (XV), N^13-1′-β-D-olivosyl-k252c], in assay [1], the inhibition at 0.01 µM was -1% and the inhibition at 0.1 µM came to 31%. In assay [2], the inhibition at 0.01 µM is -4% and the inhibition at 0.1 µM is -2%.

Consider `C[C@]12O[C@H](C[C@H](O)[C@H]1O)n1c3ccccc3c3c4c(c5c6ccccc6n2c5c31)CNC4=O` [formula (XVII), N^12-5′(S)-N^13-1′-(R)-L-olivosyl-k252c], for which the IC50 in assay [3] came out at 6.8 nM.
